According to US9969775B2, “CGRP antagonist peptides” (Ferring B.V., priority 2015, dated 2018):
Like-named read-outs stand apart in the source and are kept apart here. Numbered stars: 1 amine (or outer) side, 2 acyl side, 3 side chain; on linkers, the order of the positions; unused ones are H or OH. Bridge positions count the residues as written; N and C are the ends. Square brackets hold non-standard residues; d marks the D form. Peptide text beside a SMILES is read from it. * marks the point of attachment. Phe(3-CH2NH2) = O=C([C@H](Cc1cccc(CN[*:3])c1)N[*:1])[*:2]; Phe(2-CONH2) = NC(=O)c1ccccc1C[C@H](N)C(=O)O; Triazol3yl(1,2,4-5-NH2) = Nc1nc(*)n[nH]1; Imidazole4carbonyl = O=C(c1cnc[nH]1)*; Lys(iPr) = CC(C)NCCCC[C@H](N)C(=O)O; Picolinoyl(5-F) = O=C(c1ccc(F)cn1)*; Lys(Me2) = CN(C)CCCC[C@H](N)C(=O)O; Orn(iPr) = CC(C)NCCC[C@H](N)C(=O)O; Orn(Me2) = CN(C)CCC[C@H](N)C(=O)O; Oxazole2carbonyl = O=C(c1ncco1)*; 3Pal = N[C@@H](Cc1cccnc1)C(=O)O; Pyrrole2CO = O=C(c1ccc[nH]1)*; ΔPro = O=C(O)[C@@H]1C=CCN1; Orn = NCCC[C@H](N)C(=O)O; X2 = Cc1n[nH]c(C(=O)*)n1; Dab = NCC[C@H](N)C(=O)O; X1 = O=C(c1ncccc1F)*; X6 = O=C(c1ccncn1)*

How the values were obtained:
[1] = biological target: T1, hCGRP receptor (CALCRL:RAMP1) (Homo sapiens, UniProt O60894+Q16602); assay: CGRP receptor antagonist activity measured by cAMP assay (HTRF); format: cell-based; details: for Emax: read-out: hCGRP-R Efficacy Antag (%) Ave; for IC50: GeneBLAzer CALCRL:RAMP1-CRE-bla Freestyle 293F cells, 30 minutes
T1 construct: host or cells: GeneBLAzer CALCRL:RAMP1-CRE-bla Freestyle 293F

[2] = biological target: T2, hAM2 receptor (CALCRL:RAMP3) (Homo sapiens, UniProt O60896+Q16602); assay: AM2 receptor antagonist activity measured by cAMP assay (HTRF); format: cell-based; details: for Emax: read-out: hAM2-R Efficacy Antag (%) Ave; for IC50: GeneBLAzer CALCRL:RAMP3-CRE-bla Freestyle 293F cells; for selectivity ratio CGRP/AM2: selectivity ratio for hCGRP over hAM2, calculated from the IC50 values
T2 construct: expressed in transfected cells; host or cells: GeneBLAzer CALCRL:RAMP3-CRE-bla Freestyle 293F

[3] = % MPE: percent of the maximal possible effect, agonist human α-CGRP
[4] = agonist human α-CGRP, read-out: hCGRP-R IC50 Ave
[5] = % MPE: percent of the maximal possible effect, agonist human adrenomedullin
[6] = agonist human adrenomedullin, read-out: hAM2-R IC50 Ave

T1 sequence (Q16602 23-461): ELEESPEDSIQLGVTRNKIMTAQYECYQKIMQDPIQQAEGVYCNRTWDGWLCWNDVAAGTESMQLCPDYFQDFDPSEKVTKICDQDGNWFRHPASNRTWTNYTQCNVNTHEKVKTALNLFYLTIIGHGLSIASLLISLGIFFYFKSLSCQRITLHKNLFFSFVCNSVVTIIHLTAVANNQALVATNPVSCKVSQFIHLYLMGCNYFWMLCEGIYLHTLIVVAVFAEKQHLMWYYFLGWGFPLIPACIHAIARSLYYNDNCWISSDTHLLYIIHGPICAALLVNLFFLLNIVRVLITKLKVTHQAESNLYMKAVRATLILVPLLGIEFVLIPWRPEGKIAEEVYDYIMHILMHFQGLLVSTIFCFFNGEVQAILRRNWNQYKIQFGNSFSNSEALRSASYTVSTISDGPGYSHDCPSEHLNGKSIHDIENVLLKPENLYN
T1 sequence (O60894 27-148): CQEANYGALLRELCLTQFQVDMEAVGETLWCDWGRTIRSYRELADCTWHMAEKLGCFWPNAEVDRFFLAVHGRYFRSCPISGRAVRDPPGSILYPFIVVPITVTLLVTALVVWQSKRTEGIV
T2 sequence (Q16602 23-461): as the sequence (Q16602 23-461) above
T2 sequence (O60896 24-148): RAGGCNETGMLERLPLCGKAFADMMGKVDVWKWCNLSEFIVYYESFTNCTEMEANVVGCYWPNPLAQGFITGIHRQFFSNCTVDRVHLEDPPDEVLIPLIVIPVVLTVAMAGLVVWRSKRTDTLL

Row | Emax [1, 3] | IC50 [1, 4] | Emax [2, 5] | IC50 [2, 6] | selectivity ratio CGRP/AM2 [2] | Compound | IC50 ([1]; hCGRP-R IC50 Ave, agonist human α-CGRP) | Emax [1] | IC50 ([2]; hAM2-R IC50 Ave, agonist human adrenomedullin) | Emax [2]
1 | 100% | 0.15 nM | 99% | 184 nM | 1189 | CC(C)[C@@H]1NC(=O)[C@H](CC(=O)O)NC(=O)[C@H](CCCN(C)C)NC(=O)[C@@H](NC(=O)[C@H](Cc2ccc(O)cc2)NC(=O)[C@H](NC(=O)c2ncccc2F)C(C)C)CSSC[C@@H](C(=O)N[C@@H](Cc2cccnc2)C(N)=O)NC(=O)[C@H](Cc2ccccc2)NC(=O)[C@@H]2CCCN2C(=O)CNC1=O [Compound 46, Picolinoyl(3-F)-D-Val-Tyr-c(Cys-Orn(Me2)-Asp-Val-Gly-Pro-Phe-Cys)-3Pal-NH2] (X1-[dV]YC[Orn(Me2)]DVGPFC[3Pal]-NH2; disulfide 3-10) | – | – | – | –
2 | 100% | – | 99% | – | 1460 | CC(C)[C@@H]1NC(=O)[C@H](CC(=O)O)NC(=O)[C@H](CCCNC(=N)N)NC(=O)[C@@H](NC(=O)[C@H](Cc2ccc(O)cc2)NC(=O)[C@H](NC(=O)c2c[nH]cn2)C(C)C)CSSC[C@@H](C(=O)N[C@@H](Cc2cccnc2)C(N)=O)NC(=O)[C@H](Cc2ccccc2)NC(=O)[C@@H]2CCCN2C(=O)CNC1=O [Compound 47] (Imidazole4carbonyl-[dV]YCRDVGPFC[3Pal]-NH2; disulfide 3-10) | – | – | – | –
3 | – | 0.16 nM | – | 232 nM | – | CC(C)[C@@H]1NC(=O)[C@H](CC(=O)O)NC(=O)[C@H](CCCNC(=N)N)NC(=O)[C@@H](NC(=O)[C@H](Cc2ccc(O)cc2)NC(=O)[C@H](NC(=O)c2cnc[nH]2)C(C)C)CSSC[C@@H](C(=O)N[C@@H](Cc2cccnc2)C(N)=O)NC(=O)[C@H](Cc2ccccc2)NC(=O)[C@@H]2CCCN2C(=O)CNC1=O [Compound 47] (Imidazole4carbonyl-[dV]YCRDVGPFC[3Pal]-NH2; disulfide 3-10) | – | – | – | –
4 | 100% | 0.07 nM | 96% | 402 nM | 5610 | Cc1n[nH]c(C(=O)N[C@@H](C(=O)N[C@@H](Cc2ccc(O)cc2)C(=O)N[C@H]2CSSC[C@@H](C(=O)N[C@@H](Cc3cccnc3)C(N)=O)NC(=O)[C@H](Cc3ccccc3)NC(=O)[C@@H]3CCCN3C(=O)CNC(=O)[C@H](C(C)C)NC(=O)[C@H](CC(=O)O)NC(=O)[C@H](CCCNC(=N)N)NC2=O)C(C)C)n1 [Compound 48] (X2-[dV]YCRDVGPFC[3Pal]-NH2; disulfide 3-10) | – | – | – | –
5 | 100% | 0.19 nM | 99% | 89 nM | 461 | CC(C)[C@@H]1NC(=O)[C@H](CC(=O)O)NC(=O)[C@H](CCCNC(=N)N)NC(=O)[C@@H](NC(=O)[C@H](Cc2ccc(O)cc2)NC(=O)[C@H](NC(=O)c2ccc[nH]2)C(C)C)CSSC[C@@H](C(=O)N[C@@H](Cc2cccnc2)C(N)=O)NC(=O)[C@H](Cc2ccccc2)NC(=O)[C@@H]2CCCN2C(=O)CNC1=O [Compound 49] (Pyrrole2CO-[dV]YCRDVGPFC[3Pal]-NH2; disulfide 3-10) | – | – | – | –

Further lines, the compound ahead of its results:

Row | Compound | Emax [1, 3] | IC50 [1, 4] | Emax [2, 5] | IC50 [2, 6] | selectivity ratio CGRP/AM2 [2] | IC50 ([1]; hCGRP-R IC50 Ave, agonist human α-CGRP) | Emax [1] | IC50 ([2]; hAM2-R IC50 Ave, agonist human adrenomedullin) | Emax [2]
6 | CC(C)NCCC[C@@H]1NC(=O)[C@@H](NC(=O)[C@H](Cc2ccccc2C(N)=O)NC(=O)[C@H](NC(=O)c2ccc(F)cn2)C(C)C)CSSC[C@@H](C(=O)N[C@@H](Cc2cccnc2)C(N)=O)NC(=O)[C@H](Cc2cccnc2)NC(=O)[C@@H]2C=CCN2C(=O)CNC(=O)[C@H](C(C)C)NC(=O)[C@H](CC(=O)O)NC1=O [Compound 38, Picolinoyl(5-F)-D-Val-Phe(2-Cbm)-c(Cys-Orn(iPr)-Asp-Val-Gly-Dhp-3Pal-Cys)-3Pal-NH2] ({Picolinoyl(5-F)}-[dV][Phe(2-CONH2)]C[Orn(iPr)]DVG[ΔPro][3Pal]C[3Pal]-NH2; disulfide 3-10) | 100% | 0.06 nM | 101% | 87 nM | 1478 | – | – | – | –
7 | CC(C)NCCC[C@@H]1NC(=O)[C@@H](NC(=O)[C@H](Cc2ccccc2C(N)=O)NC(=O)[C@H](NC(=O)c2ccc(F)cn2)C(C)C)CSSC[C@@H](C(=O)N[C@@H](Cc2cccnc2)C(N)=O)NC(=O)[C@H](Cc2cccnc2)NC(=O)[C@@H]2CCCN2C(=O)CNC(=O)[C@H](C(C)C)NC(=O)[C@H](CC(=O)O)NC1=O [Compound 39, Picolinoyl(5-F)-D-Val-Phe(2-Cbm)-c(Cys-Orn(iPr)-Asp-Val-Gly-Pro-3Pal-Cys)-3Pal-NH2] ({Picolinoyl(5-F)}-[dV][Phe(2-CONH2)]C[Orn(iPr)]DVGP[3Pal]C[3Pal]-NH2; disulfide 3-10) | 100% | 0.13 nM | 101% | 275 nM | 2125 | – | – | – | –
8 | CC(C)NCCC[C@@H]1NC(=O)[C@@H](NC(=O)[C@H](Cc2ccccc2C(N)=O)NC(=O)[C@H](NC(=O)c2ncco2)C(C)C)CSSC[C@@H](C(=O)N[C@@H](Cc2cccnc2)C(N)=O)NC(=O)[C@H](Cc2cccnc2)NC(=O)[C@@H]2CCCN2C(=O)CNC(=O)[C@H](C(C)C)NC(=O)[C@H](CC(=O)O)NC1=O [Compound 40, Oxazole-2-carbonyl-D-Val-Phe(2-Cbm)-c(Cys-Orn(iPr)-Asp-Val-Gly-Pro-3Pal-Cys)-3Pal-NH2] (Oxazole2carbonyl-[dV][Phe(2-CONH2)]C[Orn(iPr)]DVGP[3Pal]C[3Pal]-NH2; disulfide 3-10) | – | – | – | – | 10884 | 0.09 nM | 100% | 980 nM | 98%
9 | CC(C)NCCCC[C@@H]1NC(=O)[C@@H](NC(=O)[C@H](Cc2ccccc2C(N)=O)NC(=O)[C@H](NC(=O)c2ncco2)C(C)C)CSSC[C@@H](C(=O)N[C@@H](Cc2cccnc2)C(N)=O)NC(=O)[C@H](Cc2cccnc2)NC(=O)[C@@H]2CCCN2C(=O)CNC(=O)[C@H](C(C)C)NC(=O)[C@H](CC(=O)O)NC1=O [Compound 41, Oxazole-2-carbonyl-D-Val-Phe(2-Cbm)-c(Cys-Lys(iPr)-Asp-Val-Gly-Pro-3Pal-Cys)-3Pal-NH2] (Oxazole2carbonyl-[dV][Phe(2-CONH2)]C[Lys(iPr)]DVGP[3Pal]C[3Pal]-NH2; disulfide 3-10) | 100% | 0.13 nM | 97% | 1020 nM | 8075 | – | – | – | –
10 | CC(C)[C@@H]1NC(=O)[C@H](CC(=O)O)NC(=O)[C@H](CCNc2nc(N)n[nH]2)NC(=O)[C@@H](NC(=O)[C@H](Cc2ccccc2C(N)=O)NC(=O)[C@H](NC(=O)c2ncco2)C(C)C)CSSC[C@@H](C(=O)N[C@@H](Cc2cccnc2)C(N)=O)NC(=O)[C@H](Cc2cccnc2)NC(=O)[C@@H]2CCCN2C(=O)CNC1=O [Compound 42, Oxazole-2-carbonyl-D-Val-Phe(2-Cbm)-c(Cys-Dab(Atz)-Asp-Val-Gly-Pro-3Pal-Cys)-3Pal-NH2] (Oxazole2carbonyl-[dV][Phe(2-CONH2)]C[Dab](Triazol3yl(1,2,4-5-NH2))DVGP[3Pal]C[3Pal]-NH2; disulfide 3-10) | 100% | – | 97% | – | – | – | – | – | –
11 | CC(C)NCCC[C@@H]1NC(=O)[C@@H](NC(=O)[C@H](Cc2ccccc2C(N)=O)NC(=O)[C@H](NC(=O)c2ncco2)C(C)C)CSSC[C@@H](C(=O)N[C@@H](Cc2cccnc2)C(N)=O)NC(=O)[C@H](Cc2cccc(CN)c2)NC(=O)[C@@H]2C=CCN2C(=O)CNC(=O)[C@H](C(C)C)NC(=O)[C@H](CC(=O)O)NC1=O [Compound 43, Oxazole-2-carbonyl-D-Val-Phe(2-Cbm)-c(Cys-Orn(iPr)-Asp-Val-Gly-Dhp-Phe(3-CH2NH2)-Cys)-3Pal-NH2] (Oxazole2carbonyl-[dV][Phe(2-CONH2)]C[Orn(iPr)]DVG[ΔPro][Phe(3-CH2NH2)]C[3Pal]-NH2; disulfide 3-10) | 100% | 0.04 nM | 101% | 180 nM | 4693 | – | – | – | –
12 | CC(C)[C@@H]1NC(=O)[C@H](CC(=O)O)NC(=O)[C@H](CCCNC(=O)[C@@H](N)CCCCN(C)C)NC(=O)[C@@H](NC(=O)[C@H](Cc2ccc(O)cc2)NC(=O)[C@H](NC(=O)c2ncco2)C(C)C)CSSC[C@@H](C(=O)N[C@@H](Cc2cccnc2)C(N)=O)NC(=O)[C@H](Cc2ccccc2)NC(=O)[C@@H]2CCCN2C(=O)CNC1=O [Compound 44, Oxazole-2-carbonyl-D-Val-Tyr-c(Cys-Orn(Lys(Me2))-Asp-Val-Gly-Pro-Phe-Cys)-3Pal-NH2] (Oxazole2carbonyl-[dV]YC[Orn](Lys(Me2))DVGPFC[3Pal]-NH2; disulfide 3-10) | 100% | 0.17 nM | 100% | 114 nM | 668 | – | – | – | –
13 | CC(C)[C@@H]1NC(=O)[C@H](CC(=O)O)NC(=O)[C@H](CCCNC(=O)[C@@H](N)CCCCN(C)C)NC(=O)[C@@H](NC(=O)[C@H](Cc2ccc(O)cc2)NC(=O)[C@H](NC(=O)c2ccncn2)C(C)C)CSSC[C@@H](C(=O)N[C@@H](Cc2cccnc2)C(N)=O)NC(=O)[C@H](Cc2ccccc2)NC(=O)[C@@H]2CCCN2C(=O)CNC1=O [Compound 45, Pyrimidine-4-carbonyl-D-Val-Tyr-c(Cys-Orn(Lys(Me2))-Asp-Val-Gly-Pro-Phe-Cys)-3Pal-NH2] (X6-[dV]YC[Orn](Lys(Me2))DVGPFC[3Pal]-NH2; disulfide 3-10) | 100% | 0.18 nM | 98% | 198 nM | 1082 | – | – | – | –
